Assay results published in US8952024B2, “Herbicidal pyrimidone derivatives” (E I du Pont de Nemours and Company, priority 2009, dated 2015).

Key:
Type in all cases: in vivo
[1] = tested on: cocklebur (Xanthium strumarium); assay: Test B pre-/postemergence plant response
Summary of the method: (§1)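 Ratings reflect visual comparison with untreated controls 13 to 15 days after application, from 0 (no effect) to 100 (complete control). Application was preemergence to seeded loam/sand soil or postemergence to 1- to 4-leaf plants, with compound in a non-phytotoxic, surfactant-containing solvent.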

[2] = tested on: bermudagrass (Cynodon dactylon); assay: Test B pre-/postemergence plant response
Summary of the method: as §1

[3] = tested on: wheat (Triticum aestivum); assay: Test B pre-/postemergence plant response
Summary of the method: as §1

[4] = tested on: large crabgrass (Digitaria sanguinalis); assay: Test A pre-/postemergence plant response
Summary of the method: (§2)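 Greenhouse trial, ~10 days. Soil (loam/sand) sprayed preemergence after seeding; emerged plants (1–2 leaf, 2–10 cm) sprayed postemergence in parallel. Response = visual injury vs untreated control, 0–100.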

[5] = tested on: barnyardgrass (Echinochloa crus-galli); assay: Test A pre-/postemergence plant response
Summary of the method: as §2

[6] = tested on: velvetleaf (Abutilon theophrasti); assay: Test A pre-/postemergence plant response
Summary of the method: as §2

[7] = tested on: corn (Zea mays); assay: Test A pre-/postemergence plant response
Summary of the method: as §2

[8] = tested on: giant foxtail (Setaria faberii); assay: Test A pre-/postemergence plant response
Summary of the method: as §2

[9] = tested on: morningglory (Ipomoea spp.); assay: Test A pre-/postemergence plant response
Summary of the method: as §2

[10] = tested on: pigweed (Amaranthus retroflexus); assay: Test A pre-/postemergence plant response
Summary of the method: as §2

[11] = tested on: wheat (Triticum aestivum); assay: Test A pre-/postemergence plant response
Summary of the method: as §2

[12] = 250 g ai/ha, Preemergence, 0 to 100 scale
[13] = Postemergence, 31 g ai/ha, scale 0 to 100 (0 no effect, 100 complete control)
[14] = Postemergence, 62 g ai/ha, scale 0 (no effect) to 100 (complete control), 13 to 15 days
[15] = Postemergence, 125 g ai/ha, visual rating after 13 to 15 days, scale 0 (no effect) to 100 (complete control)
[16] = Postemergence, 250 g ai/ha, scale 0 to 100
[17] = Preemergence, 31 g ai/ha, scale 0 to 100 (0 no effect, 100 complete control)
[18] = Preemergence, 62 g ai/ha, scale 0 to 100, 0 no effect, 100 complete control
[19] = Preemergence, 125 g ai/ha, 0 to 100 scale
[20] = Postemergence, 125 g ai/ha, visual injury, 0 to 100 scale (0 no effect, 100 complete control), approx. ten days
[21] = Postemergence, 500 g ai/ha, 0 to 100 scale, 0 = no effect, 100 = complete control, approx. ten days
[22] = Preemergence, 125 g ai/ha, 0 to 100 scale, 0 = no effect, 100 = complete control
[23] = Preemergence, 500 g ai/ha, visual injury, 0 to 100 scale (0 no effect, 100 complete control), approx. ten days

Q: What does the source list for `Cc1ccc(C)c(-n2c(-c3ccccc3)ncc(C(=O)C3=C(O)CCCC3=O)c2=O)c1` [Compound 29]?
A: Plant response rating, Cocklebur [1, 12]: 90; Plant response rating, Cocklebur [1, 13]: 85; Plant response rating, Cocklebur [1, 14]: 95; Plant response rating, Cocklebur [1, 15]: 95; Cocklebur plant response rating [1, 16]: 98; Plant response rating, Cocklebur [1, 17]: 5; Plant response rating, Cocklebur [1, 18]: 80; Cocklebur plant response rating [1, 19]: 90; Plant response rating, Bermudagrass [2, 12]: 100; Plant response rating, Bermudagrass [2, 13]: 85; Plant response rating, Bermudagrass [2, 14]: 90; Plant response rating, Bermudagrass [2, 15]: 90; Bermudagrass plant response rating [2, 16]: 100; Plant response rating, Bermudagrass [2, 17]: 98; Plant response rating, Bermudagrass [2, 18]: 100; Bermudagrass plant response rating [2, 19]: 100; Plant response rating, Wheat [3, 12]: 0; Plant response rating, Wheat [3, 14]: 0; Plant response rating, Wheat [3, 15]: 10; Wheat plant response rating [3, 16]: 40; Plant response rating, Wheat [3, 17]: 0; Plant response rating, Wheat [3, 18]: 0; Wheat plant response rating [3, 19]: 0; Crabgrass, Large plant response rating [4, 20]: 70; Plant response rating, Crabgrass, Large [4, 21]: 90; Plant response rating, Crabgrass, Large [4, 22]: 20; Plant response rating, Crabgrass, Large [4, 23]: 100; Barnyardgrass plant response rating [5, 20]: 20; Plant response rating, Barnyardgrass [5, 21]: 90; Plant response rating, Barnyardgrass [5, 22]: 0; Plant response rating, Barnyardgrass [5, 23]: 100; Velvetleaf plant response rating [6, 20]: 100; Plant response rating, Velvetleaf [6, 21]: 100; Plant response rating, Velvetleaf [6, 22]: 20; Plant response rating, Velvetleaf [6, 23]: 100; Corn plant response rating [7, 20]: 0; Plant response rating, Corn [7, 21]: 10; Plant response rating, Corn [7, 22]: 0; Plant response rating, Corn [7, 23]: 0; Foxtail, Giant plant response rating [8, 20]: 70; Plant response rating, Foxtail, Giant [8, 21]: 90; Plant response rating, Foxtail, Giant [8, 22]: 30; Plant response rating, Foxtail, Giant [8, 23]: 100; Morningglory plant response rating [9, 20]: 60; Plant response rating, Morningglory [9, 21]: 90; Plant response rating, Morningglory [9, 22]: 40; Plant response rating, Morningglory [9, 23]: 80; Pigweed plant response rating [10, 20]: 80; Plant response rating, Pigweed [10, 21]: 100; Plant response rating, Pigweed [10, 22]: 50; Plant response rating, Pigweed [10, 23]: 100; Wheat plant response rating [11, 20]: 0; Plant response rating, Wheat [11, 21]: 0; Plant response rating, Wheat [11, 22]: 0; Plant response rating, Wheat [11, 23]: 0
